Measurements from patent US20260294769A1, “ASCORBIC ACID DERIVATIVES AND COSMETIC THEREOF” (SEIWA KASEI COMPANY, LIMITED, priority 2023, published 2026).
Like-named read-outs stand apart in the source and are kept apart here.

Key:
[1] = system: Normal human dermal fibroblasts; assay: Collagen production promoting effect (ELISA of free collagen in supernatant); assay type: cell-based; conditions: 10 mM or less, 48 hours, control group set to 100%, N=3
Experimental: Normal human dermal fibroblasts were prepared in D-MEM containing 5% (v/v) fetal bovine serum to a cell density of 2.5×10^4 cells/well, and then pre-incubated for 24 hours on a 96-well plate. After removing the medium, samples prepared to a predetermined concentration in D-MEM containing 5% (v/v) fetal bovine serum were added to each well and cultured for 48 hours. After the culture was completed, the amount of free collagen in the supernatant was quantified by ELISA. Measurements were performed in triplicate (N=3).
The amount of collagen produced when the sample was measured at a concentration of 10 mM or less was compared with that of the control group, and the results (% values when the control group was set to 100%) are shown in Table 17 based on the following criteria.

[2] = Stability Test-1: odor of 1% aqueous solutions adjusted to pH 7 stored at 50° C.; assay type: physicochemical; conditions: 1% aqueous solution pH 7, 50° C., 10 panelists
Experimental: (§1) For each of the samples of Synthesis Examples 1 to 6, 1% aqueous solutions were adjusted to pH 3, 5, 7, 8, and 9 with a dilute potassium hydroxide aqueous solution, and then placed in 50 mL screw tubes and sealed. […] Furthermore, the odor and coloration of the samples adjusted to pH 7 were evaluated based on the following methods and criteria, and the results are shown in Table 11.
(§2) • Evaluation was made by 10 panelists according to the following criteria. • 3: Almost odorless. • 2: There is a slight strange odor. • 1: A strong odor is detected. • Based on the results of the above evaluation, the following classification was made: • ◯: Total score of 10 panelists is 25 or more • Δ: Total score of 10 panelists is 16-24 • x: The total score of 10 panelists is 15 or less

[3] = Stability Test-1: coloration of 1% aqueous solutions adjusted to pH 7 stored at 50° C.; assay type: physicochemical; conditions: 1% aqueous solution pH 7, 50° C., 10 panelists
Experimental: as §1
• Evaluation was made by 10 panelists according to the following criteria. • 3: Almost no change compared to immediately after preparation. • 2: Color changes compared to immediately after preparation. • 1: Strongly colored compared to immediately after preparation. • Based on the results of the above evaluation, the following classification was made: […]

[4] = system: Normal human dermal fibroblasts (NHDF); assay: Hyaluronic acid production promoting effect (ELISA of hyaluronic acid in supernatant); assay type: cell-based; conditions: 10 mM or less, 48 hours, control group set to 100%, N=3
Experimental: Normal human dermal fibroblasts (NHDF) were prepared in D-MEM containing 5% (v/v) fetal bovine serum to a cell density of 2.5×10^4 cells/well, and then pre-incubated on a 96-well plate for 24 hours. After removing the medium, samples prepared in serum-free D-MEM were added to each well and cultured for 48 hours. After the culture was completed, the amount of hyaluronic acid in the supernatant was quantified by ELISA. Measurements were performed in triplicate (N=3).
The amount of hyaluronic acid produced when the sample was measured at a concentration of 10 mM or less was compared with that of the control group, and the results (% values when the control group is set to 100%) are shown in Tables 18 to 20 based on the following criteria.

[5] = Stability Test-1: residual rate of 1% aqueous solutions stored at 50° C. (HPLC); assay type: physicochemical; conditions: water, 1% aqueous solution; for remaining at 336 h: after 2 weeks, read-out: Residual Rate; for remaining at 672 h: after 4 weeks
Experimental: as §1
• ⊚: 80% or more • ◯: 50% or more, less than 80% • Δ: 30% or more, less than 50% • x: Less than 30%

[6] = Stability Test-2: odor of cream stored at 50° C.; assay type: physicochemical; conditions: 10 panelists
Source text: as §2
(§3) For each of the samples of Synthesis Examples 9 to 32, (a) and (b) shown in Table 12 were each heated and mixed. After cooling, (c) shown in Table 12 was added to prepare a cream with a pH of 7 or 9. […] The odor and coloration were also evaluated according to the same method and criteria as in Test Example 1. The results regarding the residual rate are shown in Tables 13 and 14, and the results regarding the odor and coloration are shown in Tables 15 and 16.

[7] = Stability Test-2: residual rate in cream of pH 7 or 9 stored at 50° C.; assay type: physicochemical
Experimental: as §3

[8] = Stability Test-2: coloration of cream stored at 50° C.; assay type: physicochemical; conditions: 10 panelists
Source text: • Evaluation was made by 10 panelists according to the following criteria. • 3: Almost no change compared to immediately after preparation. • 2: Color changes compared to immediately after preparation. • 1: Strongly colored compared to immediately after preparation. • Based on the results of the above evaluation, the following classification was made:
as §3

[9] = cream pH 7, 50° C., after 2 weeks, 20160 min
[10] = cream pH 7, 50° C., after 4 weeks, 40320 min
[11] = cream pH 9, 50° C., after 2 weeks, 20160 min
[12] = cream pH 9, 50° C., after 4 weeks, 40320 min

Row | SMILES | Collagen production-promoting effect [1] | Odor ([2]; after 2 weeks) | Odor ([2]; after 4 weeks) | Coloration ([3]; after 2 weeks) | Coloration ([3]; after 4 weeks) | Hyaluronic acid production-promoting effect [4] | remaining at 336 h ([5]; pH 3, 50° C.) [%] | remaining at 672 h ([5]; pH 3, 50° C.) [%] | remaining at 336 h ([5]; pH 5, 50° C.) [%] | remaining at 672 h ([5]; pH 5, 50° C.) [%] | remaining at 336 h ([5]; pH 7, 50° C.) [%] | remaining at 672 h ([5]; pH 7, 50° C.) [%] | Odor ([6]; after 2 weeks) | Odor ([6]; after 4 weeks) | Residual Rate [7, 9] | Residual Rate [7, 10] | Residual Rate [7, 11] | Residual Rate [7, 12] | Coloration ([8]; after 2 weeks) | Coloration ([8]; after 4 weeks) | further results
1 | O=C1OC(C(O)CO)C2=C1OCCCO2 (stereo not drawn) [Synthesis Example 2, 2,3-O-(1,3-propanediyl) ascorbic acid] | ++ (140%<) | ∘ (Total score of 10 panelists is 25 or more) | Δ (Total score of 10 panelists is 16-24) | ∘ (Total score of 10 panelists is 25 or more) | ∘ (Total score of 10 panelists is 25 or more) | ++ (120%<) | ≥ 80 | ≥ 80 | ≥ 80 | ≥ 80 | ≥ 80 | ≥ 80 |  |  |  |  |  |  |  |  | remaining at 336 h ([5]; pH 8, 50° C.): ≥ 80%; remaining at 672 h ([5]; pH 8, 50° C.): 50 to 80%; remaining at 336 h ([5]; pH 9, 50° C.): 50 to 80%; remaining at 672 h ([5]; pH 9, 50° C.): 30 to 50%
2 | O=C1OC(C(O)CO)C2=C1OCC(O)CO2 (stereo not drawn) [Synthesis Example 4, 2,3-O-(2-hydroxypropane-1,3-diyl) ascorbic acid] |  | ∘ (Total score of 10 panelists is 25 or more) | ∘ (Total score of 10 panelists is 25 or more) | ∘ (Total score of 10 panelists is 25 or more) | ∘ (Total score of 10 panelists is 25 or more) | ++ (120%<) | ≥ 80 | ≥ 80 | ≥ 80 | ≥ 80 | 50 to 80 | 50 to 80 |  |  |  |  |  |  |  |  | remaining at 336 h ([5]; pH 8, 50° C.): 50 to 80%; remaining at 672 h ([5]; pH 8, 50° C.): 30 to 50%; remaining at 336 h ([5]; pH 9, 50° C.): 50 to 80%; remaining at 672 h ([5]; pH 9, 50° C.): 30 to 50%
3 | O=C1OC(C(O)CO)C2=C1OCC1(COC1)CO2 (stereo not drawn) [Synthesis Example 6, 2,3-O-(3,3-dimethyleneoxetane) ascorbic acid] | ++ (140%<) | ∘ (Total score of 10 panelists is 25 or more) | ∘ (Total score of 10 panelists is 25 or more) | ∘ (Total score of 10 panelists is 25 or more) | ∘ (Total score of 10 panelists is 25 or more) | ++ (120%<) | ≥ 80 | ≥ 80 | ≥ 80 | ≥ 80 | 50 to 80 | 50 to 80 |  |  |  |  |  |  |  |  | remaining at 336 h ([5]; pH 8, 50° C.): 50 to 80%; remaining at 672 h ([5]; pH 8, 50° C.): 30 to 50%; remaining at 336 h ([5]; pH 9, 50° C.): 50 to 80%; remaining at 672 h ([5]; pH 9, 50° C.): 30 to 50%
4 | CCCCCCCC(=O)OCC(OC(=O)CCCCCCC)C1OC(=O)C2=C1OCCCCO2 (stereo not drawn) [Synthesis Example 12, 5,6-O-dioctanoyl-2,3-O-(1,4-butanediyl) ascorbic acid] | ++ (140%<) |  |  |  |  | ++ (120%<) |  |  |  |  |  |  | ◯ (Total score of 10 panelists is 25 or more) | Δ (Total score of 10 panelists is 16-24) | ⊚ (95% or more) | ⊚ (95% or more) | ⊚ (95% or more) | ⊚ (95% or more) | ◯ (Total score of 10 panelists is 25 or more) | ◯ (Total score of 10 panelists is 25 or more) | 
5 | CCCCCCCCCCCCCCCC(=O)OCC(O)C1OC(=O)C2=C1OCCCCO2 (stereo not drawn) [Synthesis Example 15, 6-O-palmitoyl-2,3-O-(1,4-butanediyl) ascorbic acid] | ++ (140%<) |  |  |  |  | ++ (120%<) |  |  |  |  |  |  | ◯ (Total score of 10 panelists is 25 or more) | Δ (Total score of 10 panelists is 16-24) | ⊚ (95% or more) | ⊚ (95% or more) | ⊚ (95% or more) | ⊚ (95% or more) | ◯ (Total score of 10 panelists is 25 or more) | ◯ (Total score of 10 panelists is 25 or more) | 
6 | CCCC(=O)OCC(OC(=O)CCC)C1OC(=O)C2=C1OCCCO2 (stereo not drawn) [Synthesis Example 21, 5,6-O-dibutanoyl-2,3-O-(1,3-propanediyl) ascorbic acid] | ++ (140%<) |  |  |  |  | ++ (120%<) |  |  |  |  |  |  | ◯ (Total score of 10 panelists is 25 or more) | Δ (Total score of 10 panelists is 16-24) | ⊚ (95% or more) | ⊚ (95% or more) | ⊚ (95% or more) | ⊚ (95% or more) | ◯ (Total score of 10 panelists is 25 or more) | ◯ (Total score of 10 panelists is 25 or more) | 
7 | CCCCCCCCCCCCCCCC(=O)OCC(OC(=O)CCCCCCCCCCCCCCC)C1OC(=O)C2=C1OCCCO2 (stereo not drawn) [Synthesis Example 27, 5,6-O-dipalmitoyl-2,3-O-(1,3-propanediyl) ascorbic acid] | ++ (140%<) |  |  |  |  | ++ (120%<) |  |  |  |  |  |  | ◯ (Total score of 10 panelists is 25 or more) | Δ (Total score of 10 panelists is 16-24) | ⊚ (95% or more) | ⊚ (95% or more) | ⊚ (95% or more) | ⊚ (95% or more) | ◯ (Total score of 10 panelists is 25 or more) | Δ (Total score of 10 panelists is 16-24) | 
8 | CC(C)CCCCCCCCCCCCCCC(=O)OCC(OC(=O)CCCCCCCCCCCCCCC(C)C)C1OC(=O)C2=C1OCCCO2 (stereo not drawn) [Synthesis Example 29, 5,6-O-diisostearoyl-2,3-O-(1,3-propanediyl) ascorbic acid] | ++ (140%<) |  |  |  |  |  |  |  |  |  |  |  | ◯ (Total score of 10 panelists is 25 or more) | Δ (Total score of 10 panelists is 16-24) | ⊚ (95% or more) | ⊚ (95% or more) | ⊚ (95% or more) | ⊚ (95% or more) | ◯ (Total score of 10 panelists is 25 or more) | ◯ (Total score of 10 panelists is 25 or more) | 
